In data set [1] the test system is peripheral blood lymphocytes. Description: Mouse complete blood count and flow cytometry 24-48 hours after oral dexamethasone. (In flow cytometry, cells or beads pass a laser one at a time.)
Source text: CD3 and CD4 positive lymphocytes. […] Relative counts/ul=flow cytometry and complete blood count combined. […] Doses are shown as HED (human equivalent dose). A one-way ANOVA followed by Tukey's test was incorporated to determine statistical significance between the treatment groups; * p<0.05, ** p<0.01, *** p<0.001.
Treg lymphocytes were identified by being CD3+CD4+CD25+FoxP3+. Relative counts/ul=flow cytometry and complete blood counts combined. […] Doses are shown as HED (human equivalent dose). A one-way ANOVA followed by post-hoc Tukey's test was incorporated to determine statistical significance between the treatment groups; * p<0.05, ** p<0.01.
NK cells were identified by being CD3−CD49b+. B lymphocytes were identified by being CD3−B220+. Relative counts/ul=flow cytometry and complete blood counts combined. […] Doses are shown as HED (human equivalent dose). A one-way ANOVA followed by post-hoc Tukey's test was incorporated to determine statistical significance between the treatment groups; * p<0.05, ** p<0.01; *** p<0.001.
Cells/ul=absolute numbers obtained from complete blood counts (CBC). […] Doses are shown as HED (human equivalent dose).
Cells/ul=absolute numbers obtained from CBC. […] Doses are shown as HED (human equivalent dose).
The test system of a further data set is A20 B cell lymphoma. In words: A20 B cell lymphoma mouse model, tumor volume. It is filed as in vivo. The following applies: 15 mg/kg HED on days 7, 10, 18, 23, 24, 28, 35, 42.
A further data set has as its system IL-2, IL-15, IL-6. As to conditions: oral 3 mg/kg, 48 hours. As for the experimental part: Blood was drawn before drug treatment and 48 hours post-treatment for CBC analysis and flow cytometry to determine lymphocyte and other blood cell populations. Serum was analyzed for cytokine levels.
Data set [2] has as its system multiple myeloma and other cancer cell lines. Description: Direct tumor killing of cancer cell lines. As to conditions: about 1.6 mg/kg HED in a 48 hour period; maintained but not increased up to about 12 mg/kg HED. In kind it is cell-based.
Data set [3] can be described thus: A20 B cell lymphoma mouse model, toxicity (body weight, deaths). As to conditions: 15 mg/kg dexamethasone base HED.
Procedure: In the present study, mice were housed, inoculated and treated in the same way as reported in the Bascus et al. (2016) study. […] Tumor volume (mm^3) was measured every 2-3 days.
For data set [4] the following is noted: mouse, in vivo, 15 mg/kg.
Data set [5] is described as follows: A20 tumor bearing mice, cell counts by CBC analyzer and chemistry (Table 2). As to conditions: A20 tumor bearing male mice, 15 mg/kg HED on day 28, animals 12 and 7.
Data set [6] in a line: Double-blind controlled horse trial, adverse effects. It is filed as in vivo. The following applies: acute high dose; out to 70 days.
In the next data set the test system is hematopoietic stem cells. In words: Live hematopoietic stem cells in naive mice 48 hours after treatment. The following applies: high doses.
The conditions of data set [7]: HED, cited from earlier work.
A further data set concerns germinal centers. In words: Germinal centers in mouse spleen, FITC-PNA immunofluorescence. In kind it is in vivo. As to conditions: HED. As for the experimental part:
FIG. 2. […] A graph of column plots of average Germinal Center staining intensity measured using immunofluorescent staining of fresh thick spleen sections stained with FITC-PNA is shown. Immunofluorescent intensity was calculated using thresholding and MetaMorph Image Analysis. Columns are average plus SEM.
The spleens were removed, weighed wet, and then fixed in 10% formalin. Subsequently the spleens were sectioned via proprietary methods and then incubated with FITC-PNA at 4 degC for 24 hours, washed, placed on slides and immunofluorescent images were captured. Metamorph software was used to quantify the immunofluorescent signal.

In data set [8] the test system is peripheral blood lymphocytes. Description: Repeat of Hinrichs dexamethasone dosing, peripheral blood lymphocytes by flow cytometry. Further details: reduction of Tregs / reduction of NK cells / reduction of CD3+ T lymphocytes / reduction of CD3+CD4+ T lymphocytes / reduction of CD3+CD8 T lymphocytes: concentration or dose not given beside the values. It is filed as in vivo.

A further data set concerns lymphocytes, neutrophils. Description: Rat complete blood count 48 hours after IV or PO dexamethasone. In kind it is in vivo. As to conditions: male Lewis rats. As for the experimental part: FIG. 7. […] Data in FIGS. 3, 4, and 6 are from the same rats. […] Oral (left) and IV (right) doses were administered 1×48 hours before blood withdrawal.
The subject of data set [9] is marginal zone and germinal centers of the spleen. In words: Rat spleen marginal zone width (H&E) and germinal center area (BCL-6 staining). As to conditions: IV or PO, 48 hours. It is filed as in vivo.
Procedure: Column plots of the area per spleen of BCL-6 staining of 5 micron fixed spleen sections as a measure of germinal center numbers given as average per section are shown.
Formalin-fixed spleens were cross-sectioned in 5 pieces, trimmed and embedded in paraffin, sectioned and stained with hematoxylin and eosin (H&E). Measurements of the periarteriolar lymphoid sheath (PAL) diameter and the width of the marginal zone (MZ) in areas of white pulp that had PAL with the greatest diameter were measured using an ocular micrometer. BCL-6 immunohistochemical staining in rat spleens was evaluated to determine GC area using automated image analysis methods.
Data set [10] deals with peripheral blood lymphocytes.
Procedure: Each patient's pre-treatment values are connected to post-treatment values by a connecting line.
Each patient's pre-treatment values are connected to post-treatment values by a connecting line. […] HSCs are identified by being CD34+CD38−.
Blood was drawn before drug treatment and 48 hours post-treatment for CBC analysis and flow cytometry to determine lymphocyte and other blood cell populations. […] For one patient, pre-treatment CBCs were not drawn and thus normalized flow cytometry data is shown for only 3 patients.
The conditions of data set [11]: mouse, in vivo.
Procedure: To another group of mice Cy was administered IP at 166 mg/kg (HED 500 mg/m2) on day −5 and day −4 and Fludarabine 10 mg/kg (HED 30 mg/m2) on days −5, −4, −3, −2.
Data set [12] in a line: Clinical chemistries in mice after acute oral doses. In kind it is in vivo, mouse.
In the next data set the test system is B lymphocytes. In words: Treatment of patients with autoimmune diseases (paper examples 5 and 9). It is filed as in vivo, human. The following applies: acute high dose, patient with an autoimmune disease. The procedure:
Acute high dose prednisone doses range from about 19 mg/kg to about 150 mg/kg, with doses between about 56 mg/kg and about 112 mg/kg being preferred, with a repeat (second) administration of this dose 24 hours later and an optional repeat (third) administration of this dose 48-72 hours after the initial dose.

Data set [13] has as its system spleen weights, germinal centers. The following applies: mice, po daily for 13 weeks; cited from earlier work.
For data set [14] the following is noted: in vivo; cited from earlier work.
For data set [15] the following is noted: human, in vivo; cited from earlier work.
Setting [16] is: oral, 12 mg/kg HED group vs placebo, 24-48 hours.

Values joined by “and” are separate entries in the source; they are usually repeats but may differ in a detail not shown here. Equal entries are not always repeated. Where two headings read alike, the source gives them in different places. Marks after values point to notes of the source that are not given here.

For the molecule `C[C@@H]1C[C@H]2[C@@H]3CCC4=CC(=O)C=C[C@]4(C)[C@@]3(F)[C@@H](O)C[C@]2(C)[C@@]1(O)C(=O)CO` [dexamethasone], the “reduction in CD4+, CD8+, Tregs and B cells population” value in data set [1] (naive mouse and rat models, high doses, 48 hours after administration, preliminary) is on record as approximately 98%. Also, the “HED dose giving almost complete lymphoablation” value in data set [1] (normal mice, oral) is “greater than 12 mg/kg”. Besides, in data set [1] (oral HED 3-17.5 mg/kg, 24-48 hours), the absolute neutrophils entry is given as “does not affect”. In addition, the “absolute RBCs and platelets” value in [1] (oral HED 3-17.5 mg/kg, 48 hours) is given as “does not affect”. Moreover, in data set [1] (setting [16]), the “reduction in B lymphocytes (CD3−B220+)” value is recorded as 83%, the “reduction in CD3+ T lymphocytes” value turned out to be 65%, the “reduction in CD4+ T lymphocytes” value was determined as 75% and the “reduction in CD8+ T lymphocytes” value is recorded as 56%. Moreover, in data set [1] (setting [16]), the “reduction in NK cells (CD3−CD49b+)” value turned out to be 87% and the “reduction in Tregs (CD3+CD4+CD25+FoxP3+)” value worked out at 78%. In addition, in data set [1] (oral, C57B1 male mice vs placebo, 24 to 48 hours, dose group not stated), the “reduction in absolute lymphocyte count” value was 84%. The “efficacy in terms of tumor volume control compared with CHOP” value with A20 B cell lymphoma is given as “greater than 1 cycle of CHOP, but not quite as effective as 2 cycles of CHOP”. In the data set on IL-2, IL-15, IL-6, the IL-6 level entry was “not elevated in any patient” and the “patients with increased serum IL-2 and/or IL-15 levels” value was 100%. Moreover, the direct tumor killing result in data set [2] is reported as “about 50%”. Moreover, the “mice that died from the treatment” value in data set [3] is given as “no mice died”. In addition, in [4], the CRE turned out to be 0.5, the GGT was found to be 0 and the NRBC was 0*. In [5], this molecule yielded a BAS % of 0%, an EOS % of 0% and a Meta % of 0%. Also, in [5] (15 mg/kg), the BASCT was 38 and 57; the CA is 9.9 and 10.0; the EOSCT is 158 and 92; the LYM % was 30% and 53%. Also, in [5] (15 mg/kg), the MON % is 0% and 3%; the NEU % is 70% and 44%; the NEUCT was 550 and 280; the TP is 5.5 and 5.4. For the same molecule, the WBC in data set [5] (15 mg/kg) is 860 and 1150. Further, the adverse side effects result in data set [6] was “no adverse side effects were observed”. Also, in the data set with hematopoietic stem cells, the “number of live hematopoietic stem cells” value is on record as “did not significantly alter”. Also, in [7] (healthy mice), the lowest lethal dose was 114 mg/kg. In addition, in [7] (tumor bearing mice), the lowest lethal dose is on record as 43 mg/kg. The “acute dose from which germinal centers are reduced” value with germinal centers was not below 6 mg/kg. In addition, in the data set with germinal centers (listed as Dexamethasone), the “acute dose from which germinal centers are reduced” value is on record as not below 3 mg/kg. For the same molecule, the “CD3+ T lymphocytes, live events” value in data set [8] (intraperitoneal 10 mg/kg (HED 0.81 mg/kg) on day −6, −4, −2, vehicle 3370) stood at 2441 live events. Further, the “CD3-CD19+ B lymphocytes in the peripheral blood, live events by flow cytometry” value in [8] (intraperitoneal 10 mg/kg (HED 0.81 mg/kg) on day −6, −4, −2, vehicle control 10680) came to 3733 live events. Further, the “reduction of B lymphocytes” value in [8] (intraperitoneal 10 mg/kg (HED 0.81 mg/kg) on day −6, −4, −2, vs vehicle, significant) came out at 65%. In addition, in data set [8] (same dosing, non-significant), the “reduction of CD3+ T lymphocytes” value amounted to 33%, the “reduction of CD3+CD4+ T lymphocytes” value is on record as 50%, the “reduction of CD3+CD8 T lymphocytes” value is on record as 3% and the “reduction of NK cells” value was determined as 17%. Moreover, in data set [8] (same dosing, non-significant), the “reduction of Tregs” value was determined as 65%. In addition, the “CD3+CD4+CD25+FoxP3+ Tregs, live events” value in data set [8] (same dosing, vehicle 198) worked out at 70 live events. Also, the “CD3+CD8 T lymphocytes, live events” value in data set [8] (same dosing, vehicle 1318) turned out to be 1277 live events. In addition, the “CD3+CD4+ T lymphocytes, live events” value in data set [8] (same dosing, vehicle 1779) is reported as 902 live events. In addition, the “RBCs, platelets, Hct, HgB” value in the data set with lymphocytes, neutrophils was “not affected”. In the data set with lymphocytes, neutrophils (all doses), the neutrophil number entry is given as “increased by all doses”. In addition, in data set [9], the “dose of maximal inhibition of germinal center area” value amounted to 12.9 mg/kg HED and the “dose of maximal inhibition of marginal zone” value amounted to 12.9 mg/kg HED. The patients showing lymphocytosis in [10] (3 mg/kg HED) is 50%. The “hematopoietic stem cells (CD34+CD38−)” value in data set [10] (human, in vivo, po, 3 mg/kg) was “spared”. The “body weight as a general measure of toxicity” value in data set [11] is given as “did not impact body weight”. For the same molecule, the “clinical chemistry levels including cholesterol and total protein” value in [12] (acute oral doses, HED 6-12 mg/kg) was “do not elevate clinical chemistry levels out of normal range”. Also, the glucose level entry in data set [12] (after acute high dose) is “not elevated over the normal range”.

As for `C[C@]12C=CC(=O)C=C1CC[C@@H]1[C@@H]2C(=O)C[C@@]2(C)[C@H]1CC[C@]2(O)C(=O)CO` [prednisone], in the data set on B lymphocytes, the “reduction of B lymphocyte numbers” value was “greater than 90%” and the “reduction of memory B cell populations” value is reported as “greater than 90%”. In addition, the “dose above which spleen weights or germinal centers are significantly impacted” value in data set [13] is listed as “over 2.5 mg/kg”. The biologic half-life result in data set [14] was “about 20 hours”.

As to “alemtuzumab: anti-CD52 lymphocyte depletional agent”, the “patients who developed (primarily thyroid) autoimmunity” value in data set [15] is reported as “two thirds”.

Values taken from US12048705B2, “Immunoablative therapies” (AVM Biotechnology, LLC, priority 2018, dated 2024).
